# From PubChem BioAssay (NCI)
# Where “and” joins values, the source holds several entries; their conditions need not be identical. Equal values may be shown once.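 All cell lines were grown in 96-well plates and treated with compound for 48 hours. GI50: concentration for 50% inhibition of growth. TGI is the concentration that stops growth completely.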
# Tested on: P388 leukemia
# Assay: NCI tumour cell line growth inhibition, 48 h
SMILES,TGI,GI50 [µM]
COc1nc(C(Cl)(Cl)Cl)c(Cl)c(OC)c1Cl,43 µM,
N[C@@H](Cc1ccc(N(CCCl)CCCl)cc1)C(=O)O,35.9 µM and 42.9 µM,1.79
